# Assay results as given in US10105357B2, “Indication of antibiotic drugs for preparation of cancer inhibition pharmaceutical composition” (LAUNX BIOMEDICAL CO., LTD., priority 2014, dated 2018).
# Read-outs that look alike come from different tables or passages of the source.
# How the values were obtained:
# [1] = tested on: HeLa (Cervix Adenocarcinoma); experiment: Cell viability analysis, cervical cancer HeLa; assay type: cell-based, human; details: Homo sapiens, HeLa, 72 h
# [2] = tested on: HL-60 (Acute Promyelocytic Leukemia); experiment: Cell viability analysis, leukemia HL-60; assay type: cell-based, human; details: Homo sapiens, HL-60, 72 h
# cancer cell lines = experiment: Cell viability analysis (WST-1) on cancer cell lines; assay type: cell-based, human; details: drug 10 μM, 72 hours, WST-1; Table 3
# [3] = tested on: A375 (Amelanotic Melanoma); experiment: Cell viability analysis, skin cancer A375; assay type: cell-based, human; details: Homo sapiens, A-375, 72 h
# [4] = tested on: HCT116 (p53+) (Colorectal Carcinoma); experiment: cells; details: Homo sapiens, HCT-116, 72 h, read-out: cell viability (survival rate), HCT116
# [5] = tested on: LoVo (Colorectal Adenocarcinoma); experiment: Cell viability analysis, colon cancer LoVo; assay type: cell-based, human; details: Homo sapiens, LoVo, 72 h
# [6] = tested on: HepG2 (Hepatocellular Carcinoma); experiment: Cell viability analysis, hepatic cancer HepG2; assay type: cell-based, human; details: Homo sapiens, HepG2, 72 h
# [7] = tested on: MCF7 (Mammary Gland, Adenocarcinoma); experiment: Cell viability analysis, breast cancer MCF7; assay type: cell-based, human; details: Homo sapiens, MCF7, 72 h
# [8] = tested on: TSGH-8301 (Urinary Bladder Carcinoma); experiment: Cell viability analysis, bladder cancer TSGH-8301; assay type: cell-based, human; details: Homo sapiens, 72 h
# [9] = tested on: HI650 (Lung Adenocarcinoma); experiment: Cell viability analysis, lung cancer HI650; assay type: cell-based, human; details: Homo sapiens, NCI-H1650, 72 h
# [10] = tested on: PC3 (p53−) (Prostate Adenocarcinoma); experiment: Cell viability analysis, prostate cancer PC3; assay type: cell-based, human; details: Homo sapiens, 72 h
# [11] = tested on: AGS (Gastric Adenocarcinoma); experiment: Cell viability analysis, gastric cancer AGS; assay type: cell-based, human; details: Homo sapiens, 72 h
# [12] = tested on: A549 (Lung Adenocarcinoma); experiment: Cell viability analysis, lung cancer A549; assay type: cell-based, human; details: Homo sapiens, A549, 72 h
# [13] = tested on: MKN-45 (Gastric Adenocarcinoma); experiment: Cell viability analysis, gastric cancer MKN-45; assay type: cell-based, human; details: Homo sapiens, MKN-45, 72 h
structure (smiles),measurement,setting,value
O=C([O-])c1ccccc1O.[Na+] [Sodium salicylate],viability at 10 µM,"[1]; read-out: cell viability (survival rate), HeLa",94.4%
same,viability at 10 µM,"[2]; read-out: cell viability (survival rate), HL-60",94.7%
same,inhibition effect on different cancer cell lines,cancer cell lines,significant inhibition effect
same,viability at 10 µM,"[3]; read-out: cell viability (survival rate), A375",74.9%
same,viability at 10 µM,[4],73.5%
same,viability at 10 µM,"[5]; read-out: cell viability (survival rate), LoVo",102%
same,viability at 10 µM,"[6]; read-out: cell viability (survival rate), HepG2",84.3%
same,viability at 10 µM,"[7]; read-out: cell viability (survival rate), MCF7",89%
same,viability at 10 µM,"[8]; read-out: cell viability (survival rate), TSGH",137%
same,viability at 10 µM,"[9]; read-out: cell viability (survival rate), H1650",90.1%
same,viability at 10 µM,"[10]; read-out: cell viability (survival rate), PC3",87.9%
same,viability at 10 µM,"[11]; read-out: cell viability (survival rate), AGS",82.1%
same,viability at 10 µM,"[12]; read-out: cell viability (survival rate), A549",107%
same,viability at 10 µM,"[13]; read-out: cell viability (survival rate), MKN-45",77.9%
CCn1cc(C(=O)O)c(=O)c2cnc(N3CCCC3)nc21 [Piromidic Acid],viability at 10 µM,"[1]; read-out: cell viability (survival rate), HeLa, drug 10 μM, 72 hours, WST-1, OD450 nm",95.5%
same,viability at 10 µM,"[2]; read-out: cell viability (survival rate), HL-60, drug 10 μM, 72 hours, WST-1, OD450 nm",95.2%
same,inhibition effect on different cancer cell lines,cancer cell lines,significant inhibition effect
same,viability at 10 µM,"[3]; read-out: cell viability (survival rate), A375, drug 10 μM, 72 hours, WST-1, OD450 nm",86.7%
same,viability at 10 µM,[4],89.8%
same,viability at 10 µM,"[5]; read-out: cell viability (survival rate), LoVo, drug 10 μM, 72 hours, WST-1, OD450 nm",95.2%
same,viability at 10 µM,"[6]; read-out: cell viability (survival rate), HepG2, drug 10 μM, 72 hours, WST-1, OD450 nm",73.8%
same,viability at 10 µM,"[7]; read-out: cell viability (survival rate), MCF7, drug 10 μM, 72 hours, WST-1, OD450 nm",99.5%
same,viability at 10 µM,"[8]; read-out: cell viability (survival rate), TSGH, drug 10 μM, 72 hours, WST-1, OD450 nm",90.5%
same,viability at 10 µM,"[9]; read-out: cell viability (survival rate), H1650, drug 10 μM, 72 hours, WST-1, OD450 nm",67.2%
same,viability at 10 µM,"[10]; read-out: cell viability (survival rate), PC3, drug 10 μM, 72 hours, WST-1, OD450 nm",107%
same,viability at 10 µM,"[11]; read-out: cell viability (survival rate), AGS, drug 10 μM, 72 hours, WST-1, OD450 nm",85.9%
same,viability at 10 µM,"[12]; read-out: cell viability (survival rate), A549, drug 10 μM, 72 hours, WST-1, OD450 nm",80.5%
same,viability at 10 µM,"[13]; read-out: cell viability (survival rate), MKN-45, drug 10 μM, 72 hours, WST-1, OD450 nm",100%
